What was measured:
Assay type in all cases: cell-based, human
SW620 cells [1] = assay: Ribosome profiling of SW620 cells (transcription, translational rate, translational efficiency); conditions: 8 hours
Procedure: SW620 human colon cancer cells were cultured in DMEM media supplemented with penicillin G (100 U/ml), streptomycin (100 μg/ml), and 10% FBS in a humidified atmosphere of 5% CO2 maintained at 37° C.
(§1) SW620 cells (ATCC, passage 12) were seeded at about 75% confluence 24 hrs prior to drug treatment. […] About 6×10^6 cells/10 cm plate and about 1×10^6 cells/well of a 6-well plate were harvested for ribosome profiling and Western blot analysis, respectively, following drug treatment.

SW620 cells [2] = assay: Proliferation assay on SW620 cells
SW620 cells [3] = assay: Western blot of phosphorylation of protein translation components in SW620 cells
Procedure: as §1
Cells were washed with PBS and lysed in 1× cell lysis buffer (Cell Signaling) for 15 min at 4° C. Lysates were sonicated briefly, clarified by centrifugation for 15 min at 14, 000 rpm, and supernatants were then collected. Protein concentration in the soluble fraction was determined by BCA protein assay (Thermo Scientific). A 4-20% Bis-Tris gradient gel (Invitrogen) was used to resolve 20 μg of protein and transferred to nitrocellulose membrane. The resulting membranes were blocked for 1 hr at room temperature with Odyssey blocking solution (LI-COR) and then incubated with primary antibodies at 4° C. overnight. The following day, the blots were washed 3 times, 10 min each in TBST, and incubated with IR-conjugated goat anti-rabbit IgG secondary antibody (IRDye 800 CW at 1:20,000; LI-COR) for 1 hour at room temperature. The blots were then washed, scanned, and specific proteins were detected using the LI-COR Odyssey infrared imager. The following antibodies from Cell Signaling were used at 1:1000 dilution: anti-phospho-eIF4E(Ser209)(#9741), anti-phospho-rpS6(Ser235/236)(#4858), anti-phospho-ERK1/2(Thr202/Tyr204)(#4370), anti-phospho-p70S6K(Thr421/Ser424)(#9204), anti-phospho-p90RSK(Thr359/Ser363)(#9344), anti-phospho-4EBP(Ser65), anti-phospho-pAKT(Ser473), anti-phospho-eIF4E(Ser209), and anti-β-actin (#4970). Actin was used as a loading amount control.

SMILES: CC(=O)Nc1cccc(-n2c(=O)n(C3CC3)c(=O)c3c(Nc4ccc(I)cc4F)n(C)c(=O)c(C)c32)c1 [GSK212]
- Profile TE (SW620 cells [1]; gene LIF, 250 nM): 0.9 log2 MEKi/DMSO
- Profile rna (SW620 cells [1]; gene LIF, 250 nM): −1.7 log2 MEKi/DMSO
- Profile rpf (SW620 cells [1]; gene LIF, 250 nM): −0.9 log2 MEKi/DMSO
- Profile TE (SW620 cells [1]; gene LNK/SH2B3, 250 nM): −0.9 log2 MEKi/DMSO
- Profile rna (SW620 cells [1]; gene LNK/SH2B3, 250 nM): 0.2 log2 MEKi/DMSO
- Profile rpf (SW620 cells [1]; gene LNK/SH2B3, 250 nM): −0.7 log2 MEKi/DMSO
- Profile TE (SW620 cells [1]; gene MAFF, 250 nM): 0.6 log2 MEKi/DMSO
- Profile rna (SW620 cells [1]; gene MAFF, 250 nM): −1.7 log2 MEKi/DMSO
- Profile rpf (SW620 cells [1]; gene MAFF, 250 nM): −1.1 log2 MEKi/DMSO
- Profile TE (SW620 cells [1]; gene MAP2K3, 250 nM): 1.0 log2 MEKi/DMSO
- Profile rna (SW620 cells [1]; gene MAP2K3, 250 nM): −1.6 log2 MEKi/DMSO
- Profile rpf (SW620 cells [1]; gene MAP2K3, 250 nM): −0.6 log2 MEKi/DMSO
- Profile TE (SW620 cells [1]; gene MYC, 250 nM): −0.3 log2 MEKi/DMSO
- Profile rna (SW620 cells [1]; gene MYC, 250 nM): −1.3 log2 MEKi/DMSO
- Profile rpf (SW620 cells [1]; gene MYC, 250 nM): −1.6 log2 MEKi/DMSO
- Profile TE (SW620 cells [1]; gene PHLDA2, 250 nM): 1.1 log2 MEKi/DMSO
- Profile rna (SW620 cells [1]; gene PHLDA2, 250 nM): −2.1 log2 MEKi/DMSO
- Profile rpf (SW620 cells [1]; gene PHLDA2, 250 nM): −1.1 log2 MEKi/DMSO
- Profile TE (SW620 cells [1]; gene PLK3, 250 nM): 0.7 log2 MEKi/DMSO
- Profile rna (SW620 cells [1]; gene PLK3, 250 nM): −3.1 log2 MEKi/DMSO
- Profile rpf (SW620 cells [1]; gene PLK3, 250 nM): −2.4 log2 MEKi/DMSO
- Profile TE (SW620 cells [1]; gene POLR1C, 250 nM): 0.2 log2 MEKi/DMSO
- Profile rna (SW620 cells [1]; gene POLR1C, 250 nM): −0.8 log2 MEKi/DMSO
- Profile rpf (SW620 cells [1]; gene POLR1C, 250 nM): −0.6 log2 MEKi/DMSO
- Profile TE (SW620 cells [1]; gene POLR3G, 250 nM): −0.1 log2 MEKi/DMSO
- Profile rna (SW620 cells [1]; gene POLR3G, 250 nM): −0.7 log2 MEKi/DMSO
- Profile rpf (SW620 cells [1]; gene POLR3G, 250 nM): −0.8 log2 MEKi/DMSO
- Profile TE (SW620 cells [1]; gene PPAN, 250 nM): −0.7 log2 MEKi/DMSO
- Profile rna (SW620 cells [1]; gene PPAN, 250 nM): −0.4 log2 MEKi/DMSO
- Profile rpf (SW620 cells [1]; gene PPAN, 250 nM): −1.1 log2 MEKi/DMSO
- Profile TE (SW620 cells [1]; gene PPAT, 250 nM): −0.3 log2 MEKi/DMSO
- Profile rna (SW620 cells [1]; gene PPAT, 250 nM): −0.4 log2 MEKi/DMSO
- Profile rpf (SW620 cells [1]; gene PPAT, 250 nM): −0.7 log2 MEKi/DMSO
- Profile TE (SW620 cells [1]; gene PYCRL, 250 nM): 0.1 log2 MEKi/DMSO
- Profile rna (SW620 cells [1]; gene PYCRL, 250 nM): −0.2 log2 MEKi/DMSO
- Profile rpf (SW620 cells [1]; gene PYCRL, 250 nM): 0.0 log2 MEKi/DMSO
- Profile TE (SW620 cells [1]; gene RRS1, 250 nM): 0.1 log2 MEKi/DMSO
- Profile rna (SW620 cells [1]; gene RRS1, 250 nM): −0.9 log2 MEKi/DMSO
- Profile rpf (SW620 cells [1]; gene RRS1, 250 nM): −0.8 log2 MEKi/DMSO
- Profile TE (SW620 cells [1]; gene SEMA6A, 250 nM): −1.5 log2 MEKi/DMSO
- Profile rna (SW620 cells [1]; gene SEMA6A, 250 nM): 2.3 log2 MEKi/DMSO
- Profile rpf (SW620 cells [1]; gene SEMA6A, 250 nM): 0.7 log2 MEKi/DMSO
- Profile TE (SW620 cells [1]; gene SLC1A5, 250 nM): −0.3 log2 MEKi/DMSO
- Profile rna (SW620 cells [1]; gene SLC1A5, 250 nM): −0.1 log2 MEKi/DMSO
- Profile rpf (SW620 cells [1]; gene SLC1A5, 250 nM): −0.5 log2 MEKi/DMSO
- Profile TE (SW620 cells [1]; gene SLC4A7, 250 nM): −0.9 log2 MEKi/DMSO
- Profile rna (SW620 cells [1]; gene SLC4A7, 250 nM): −0.2 log2 MEKi/DMSO
- Profile rpf (SW620 cells [1]; gene SLC4A7, 250 nM): −1.1 log2 MEKi/DMSO
- Profile TE (SW620 cells [1]; gene SPRED2, 250 nM): −1.3 log2 MEKi/DMSO
- Profile rna (SW620 cells [1]; gene SPRED2, 250 nM): −2.1 log2 MEKi/DMSO
- Profile rpf (SW620 cells [1]; gene SPRED2, 250 nM): −3.5 log2 MEKi/DMSO
- Profile TE (SW620 cells [1]; gene SPRY2, 250 nM): 0.4 log2 MEKi/DMSO
- Profile rna (SW620 cells [1]; gene SPRY2, 250 nM): −1.7 log2 MEKi/DMSO
- Profile rpf (SW620 cells [1]; gene SPRY2, 250 nM): −1.3 log2 MEKi/DMSO
- Profile TE (SW620 cells [1]; gene SPRY4, 250 nM): −2.0 log2 MEKi/DMSO
- Profile rna (SW620 cells [1]; gene SPRY4, 250 nM): −5.2 log2 MEKi/DMSO
- Profile rpf (SW620 cells [1]; gene SPRY4, 250 nM): −7.1 log2 MEKi/DMSO
- Profile TE (SW620 cells [1]; gene TNC, 250 nM): −1.6 log2 MEKi/DMSO
- Profile rna (SW620 cells [1]; gene TNC, 250 nM): 1.1 log2 MEKi/DMSO
- Profile rpf (SW620 cells [1]; gene TNC, 250 nM): −0.5 log2 MEKi/DMSO
- Profile TE (SW620 cells [1]; gene TNFRSF12A, 250 nM): 0.2 log2 MEKi/DMSO
- Profile rna (SW620 cells [1]; gene TNFRSF12A, 250 nM): −2.2 log2 MEKi/DMSO
- Profile rpf (SW620 cells [1]; gene TNFRSF12A, 250 nM): −2.0 log2 MEKi/DMSO
- Profile TE (SW620 cells [1]; gene WDR3, 250 nM): −1.0 log2 MEKi/DMSO
- Profile rna (SW620 cells [1]; gene WDR3, 250 nM): 0.0 log2 MEKi/DMSO
- Profile rpf (SW620 cells [1]; gene WDR3, 250 nM): −1.0 log2 MEKi/DMSO
- Profile TE (SW620 cells [1]; gene YRDC, 250 nM): 0.1 log2 MEKi/DMSO
- Profile rna (SW620 cells [1]; gene YRDC, 250 nM): −0.7 log2 MEKi/DMSO
- Profile rpf (SW620 cells [1]; gene YRDC, 250 nM): −0.6 log2 MEKi/DMSO
- inhibition of proliferation or induction of apoptosis (SW620 cells [2]; 250 nM for 8 hours): No evidence
- potency in 72 hour proliferation assays (SW620 cells [2]; 72 hour (data not shown)): 20 to 30 nM
- phosphorylation of S6, eIF4E and 4EBP1 (SW620 cells [3]; 25 nM to 100 nM (data not shown)): little or no effect
- Phosphorylation of ERK and p90RSK (SW620 cells [3]; 250 nM, 8 hrs): completely inhibited
- phosphorylation of eIF4E (SW620 cells [3]; 250 nM, 8 hrs): partial inhibition
- phosphorylation of the ribosomal protein S6 (rpS6) and S6K (p70RSK) (SW620 cells [3]; 250 nM, 8 hrs): only partial inhibition
